System: M. bovis BCG transmembrane potential (ΔΨ)
Assay type: cell-based, Mycobacterium bovis BCG
Settings: pH 7.2

N#CC(C#N)=NNc1cccc(Cl)c1 [CCCP, carbonyl cyanide m-chlorophenylhydrazone]
DiOC2 red / green fluorescence ratio, M. bovis: 0.086±0.003
